Reference: US20210330611A1, “THERAPY FOR NEUROLOGICAL DISEASES/DISORDERS” (priority 2020, published 2021)
Where “and” joins values, the source holds several entries; their conditions need not be identical. Equal values may be shown once. Where a name gives a salt, the structure may show the parent alone. Read-outs that look alike come from different tables or passages of the source.

How the values were obtained:
[1] = tested on: LPS-induced microglia activation; assay: Image-based assay of LPS-induced microglia activation (HTS and dose response); assay type: cell-based, rat; settings: Rattus norvegicus, Microglia; for inhibition at 10 µM: primary microglia HTS, LPS stimulation, increased cell size (>800 μm^2) as marker of activation, read-out: LPS % inhibition
[2] = tested on: primary rat microglia; assay: Cell toxicity (dead cells, size <150 μm2) in coated fibrin (cFib) assay; settings: primary microglia HTS, fibrin stimulation; decreased size (<150 μm^2) as marker of toxicity;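 for Fibrin % cell toxicity: share of dead cells sized under 150 µm2 at 10 µM in fibrin-stimulated microglia HTS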
[3] = tested on: fibrin-induced microglia activation; assay: Image-based assay of fibrin-induced microglia activation (HTS and dose response); assay type: cell-based, rat; settings: for IC50 / inhibition at 10 µM: Rattus norvegicus, Microglia; for inhibition at 10 µM: primary microglia HTS, fibrin stimulation, increased cell size (>800 μm^2) as marker of activation, read-out: Fibrin % inhibition
[4] = in vitro; settings: rat
[5] = in vitro; settings: rat, Cell Toxicity IC50 (uM) [cFib assay]
[6] = tested on: fibrin- and LPS-induced microglia activation; assay: cells; assay type: cell-based, rat; settings: for inhibition at 10 µM: Rattus norvegicus
[7] = tested on: primary rat microglia; assay: Cell toxicity (dead cells, size <150 μm2) in LPS assay; settings: for LPS % cell toxicity: primary microglia HTS, LPS stimulation, decreased size (<150 μm^2) as marker of toxicity; for IC50: read-out: Cell Toxicity IC50 (uM) [LPS assay], LPS assay
[8] = 48 h, Table 1, dose response 0.001-20 μM, triplicates, primary rat microglia, 48 h, read-out: LPS IC50
[9] = LPS-induced microglia activation, dose response, read-out: LPS IC50 (uM) (Suppl. Table 7)
[10] = Table 3, read-out: LPS IC50 (uM) (Suppl. Table 7)
[11] = dose response, LPS-induced microglia activation, read-out: LPS IC50
[12] = 48 h, Table 1, dose response 0.001-20 μM, triplicates, primary rat microglia, 48 h, read-out: Fibrin IC50
[13] = Table 3, read-out: Fibrin IC50 (uM) (Suppl. Table 7)
[14] = dose response, fibrin-induced microglia activation, read-out: Fibrin IC50
[15] = fibrin-induced microglia activation, dose response, read-out: Fibrin IC50 (uM) (Suppl. Table 7)
[16] = HTS of 1907 compounds, quadrant by fibrin and LPS inhibition
[17] = Microglia, Table 3, read-out: Cherry-picked Hit (Suppl. Table 7)
[18] = Microglia, HTS hit classification, read-out: Hit
[19] = quadrant by fibrin and LPS inhibition in HTS of 1907 compounds
[20] = Table 6, read-out: LPS IC50 (uM) (Suppl. Table 7)
[21] = Table 6, read-out: Fibrin IC50 (uM) (Suppl. Table 7)
[22] = hit classification in microglia HTS, read-out: Cherry-picked Hit (Suppl. Table 7)
[23] = listed as Medroxyprogesterone Ac

SMILES | IC50 [1, 8] | inhibition at 10 µM ([1]; 48 h) | IC50 [1, 9] | IC50 [1, 11] | Fibrin % cell toxicity [2] | IC50 [3, 12] | IC50 [3, 14] | IC50 [3, 15] | inhibition at 10 µM [3] | IC50 [4] | IC50 ([5]; Table 3) | IC50 ([5]; cFib assay) | Quadrant (FIG. 5b) [6, 16] | inhibition at 10 µM [6, 17] | inhibition at 10 µM [6, 18] | Quadrant (FIG. 5b) ([6]; Table 1, screen at 10 μM) | Quadrant (FIG. 5b) ([6]; Table 3, screen at 10 μM) | Quadrant (FIG. 5b) [6, 19] | LPS % cell toxicity [7] | IC50 [7] | also measured
CCCCC(=O)O[C@]1(C(=O)CO)CC[C@H]2[C@@H]3CCC4=CC(=O)CC[C@]4(C)[C@H]3[C@@H](O)C[C@@]21C [Hydrocortisone valerate, reference compound] | 1 µM | 73% | 1 µM | 1 µM | 1% | 0.05 µM | 0.05 µM | 0.05 µM | 95% | > 20 µM | > 20 µM | > 20 µM | Q2 | > 50% | > 50% | Q2 | Q2 | Q2 | 1% | > 20 µM | IC50 [1, 10]: 1 µM; Fibrin Selectivity [3]: 28; Fibrin Selectivity (LOG10) [3]: 1.45; IC50 [3, 13]: 0.05 µM
C[C@]12CCC(=O)C=C1CC[C@@H]1[C@@H]2[C@@H](O)C[C@@]2(C)[C@H]1CC[C@]2(O)C(=O)CO [Hydrocortisone, reference compound] | – | – | – | – | 2% and 4% | – | – | – | 104% | > 20 µM | > 20 µM | > 20 µM | Q2 | > 50% | > 50% | Q2 | Q2 | Q2 | 2% and 1% and 5% | > 20 µM | IC50 [1, 20]: 18 µM; IC50 ([1]; Table 7, read-out: LPS_IC50): 0.002 µM; IC50 [3, 21]: 0.03 µM; IC50 ([3]; Table 7, read-out: fib_IC50): 0.018 µM; IC50 ([5]; cFib assay, Table 6): > 20 µM; Quadrant (FIG. 5b) ([6]; Table 2, screen at 10 μM): Q2; Activity ([6]; Table 7, fib = fibrin, LPS, tox = toxicity): fib/LPS; Quadrant (FIG. 5b) ([6]; microglia HTS, Table 6): Q2; IC50 ([7]; Table 6): > 20 µM
CC(C)C(=O)c1c(C(C)C)nn2ccccc12 [Ibudilast, reference compound] | > 20 µM | 57% | > 20 µM | > 20 µM | 1% | > 20 µM | > 20 µM | > 20 µM | 75% | > 20 µM | – | > 20 µM | Q2 | – | > 50% | Q2 | – | Q2 | 1% | – | inhibition at 10 µM [6, 22]: > 50%
c1ccc2c(c1)OCC(C1=NCCN1)O2 (centres unmarked) [Idazoxan hydrochloride, reference compound] | 2 µM | 14% | 2 µM | 2 µM | 2% | 0.4 µM | 0.4 µM | 0.4 µM | 70% | > 20 µM | > 20 µM | > 20 µM | Q3 | > 50% | > 50% | Q3 | Q3 | Q3 | 0% | > 20 µM | IC50 [1, 10]: 2 µM; Fibrin Selectivity [3]: 5; Fibrin Selectivity (LOG10) [3]: 0.69; IC50 [3, 13]: 0.4 µM
CCCCC1=NC2(CCCC2)C(=O)N1Cc1ccc(-c2ccccc2-c2nnn[nH]2)cc1 [Irbesartan, reference compound] | > 20 µM | 31% | > 20 µM | > 20 µM | 2% | > 20 µM | > 20 µM | > 20 µM | 66% | > 20 µM | – | > 20 µM | Q3 | – | > 50% | Q3 | – | Q3 | 1% | – | inhibition at 10 µM [6, 22]: > 50%
Cc1cc(NC(=O)C2=C(O)c3ccccc3S(=O)(=O)N2C)no1 [Isoxicam, reference compound] | > 20 µM | 30% | > 20 µM | > 20 µM | 1% | 7 µM | 7 µM | 7 µM | 67% | > 20 µM | > 20 µM | > 20 µM | Q3 | > 50% | > 50% | Q3 | Q3 | Q3 | 1% | > 20 µM | IC50 [1, 10]: > 20 µM; Fibrin Selectivity [3]: 3; Fibrin Selectivity (LOG10) [3]: 0.43; IC50 [3, 13]: 7 µM
C[C@H](N)[C@H](O)c1ccc(O)c(O)c1 [Levonordefrin, reference compound] | > 20 µM | 36% | > 20 µM | > 20 µM | 1% | 0.9 µM | 0.9 µM | 0.9 µM | 70% | > 20 µM | > 20 µM | > 20 µM | Q3 | > 50% | > 50% | Q3 | Q3 | Q3 | 0% | > 20 µM | IC50 [1, 10]: > 20 µM; Fibrin Selectivity [3]: 21; Fibrin Selectivity (LOG10) [3]: 1.33; IC50 [3, 13]: 0.9 µM
CC(=O)O[C@]1(C(C)=O)CC[C@H]2[C@@H]3C[C@H](C)C4=CC(=O)CC[C@]4(C)[C@H]3CC[C@@]21C [Medroxyprogesterone acetate, reference compound] | > 20 µM | 56% | > 20 µM | > 20 µM | 1% | 0.3 µM | 0.5 µM | 0.3 µM | 72% | > 20 µM | > 20 µM | > 20 µM | Q2 | > 50% | > 50% | Q2 | Q2 | Q2 | 1% | > 20 µM | IC50 [1, 10]: > 20 µM; IC50 [1, 20]: > 20 µM; IC50 [3, 13]: 0.3 µM; IC50 [3, 21]: 0.3 µM; Fibrin Selectivity (LOG10) ([3]; fibrin vs LPS, LOG10, Table 6): 1.84 and 1.61; Fibrin Selectivity ([3]; fibrin vs LPS, Table 6): 70 and 41; Fibrin Selectivity [3, 23]: 70 and 41; Fibrin Selectivity (LOG10) [3, 23]: 1.84 and 1.61; Fibrin Selectivity ([3]; listed as Medroxyprogesterone Acetate): 70 and 41; IC50 ([5]; cFib assay, Table 6): > 20 µM; Quadrant (FIG. 5b) ([6]; microglia HTS, Table 6): Q2; IC50 ([7]; Table 6): > 20 µM
C=C1C[C@H]2[C@@H]3C=C(C)C4=CC(=O)CC[C@]4(C)[C@H]3CC[C@]2(C)[C@@]1(OC(C)=O)C(C)=O [Melengestrol acetate, reference compound] | 13 µM | 67% | 13 µM | 13 µM | 2% | 0.07 µM | 0.07 µM | 0.07 µM | 86% | > 20 µM | > 20 µM | > 20 µM | Q2 | > 50% | > 50% | Q2 | Q2 | Q2 | 2% | > 20 µM | IC50 [1, 10]: 13 µM; IC50 [1, 20]: 13 µM; Fibrin Selectivity [3]: 196; Fibrin Selectivity (LOG10) [3]: 2.29; IC50 [3, 13]: 0.07 µM; IC50 [3, 21]: 0.07 µM; Fibrin Selectivity (LOG10) ([3]; fibrin vs LPS, LOG10, Table 6): 2.29; Fibrin Selectivity ([3]; fibrin vs LPS, Table 6): 196; IC50 ([5]; cFib assay, Table 6): > 20 µM; Quadrant (FIG. 5b) ([6]; microglia HTS, Table 6): Q2; IC50 ([7]; Table 6): > 20 µM
